EC50 and Emax data for 25 molecules are collected here from patent US8362050B2, “Compounds and methods for modulating G protein-coupled receptors” (IRM LLC, priority 2008, dated 2013).

In general, EC50 refers to the midpoint of the concentration-response curve.

This test has as its target T1, Human GPR120 (Homo sapiens, UniProt Q5NUL3).
T1 construct: Ga16 (promiscuous G protein) fusion partner; expressed in transfected cells
T1 sequence (Q5NUL3 with tags, fused parts or gaps): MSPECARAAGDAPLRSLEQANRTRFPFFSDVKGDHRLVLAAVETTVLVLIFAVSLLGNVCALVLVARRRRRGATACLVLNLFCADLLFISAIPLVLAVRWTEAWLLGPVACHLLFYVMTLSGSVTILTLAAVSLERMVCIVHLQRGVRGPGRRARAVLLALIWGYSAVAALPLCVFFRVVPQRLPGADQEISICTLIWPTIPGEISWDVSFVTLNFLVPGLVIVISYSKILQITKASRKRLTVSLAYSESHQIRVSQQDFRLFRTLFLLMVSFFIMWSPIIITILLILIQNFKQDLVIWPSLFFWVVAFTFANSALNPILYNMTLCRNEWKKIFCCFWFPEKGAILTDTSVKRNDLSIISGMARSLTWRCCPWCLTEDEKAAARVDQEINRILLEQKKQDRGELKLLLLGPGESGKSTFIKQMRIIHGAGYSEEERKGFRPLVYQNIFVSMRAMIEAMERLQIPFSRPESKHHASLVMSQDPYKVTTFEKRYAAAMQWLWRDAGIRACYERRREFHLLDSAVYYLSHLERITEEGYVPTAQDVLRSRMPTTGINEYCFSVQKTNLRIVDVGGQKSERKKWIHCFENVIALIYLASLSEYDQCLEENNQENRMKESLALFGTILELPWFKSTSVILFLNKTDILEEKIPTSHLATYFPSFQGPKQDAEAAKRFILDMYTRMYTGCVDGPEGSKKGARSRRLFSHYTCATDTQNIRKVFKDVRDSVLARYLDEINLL
The test can be described thus: FLIPR assay: agonist-induced calcium mobilization in HEK293-GPR120-Ga16 cells. The class given is cell-based. The following applies: for EC50: GPR120 activation, calcium mobilization, HEK293-GPR120-Ga16 cells; for Emax: % enhancement of the test compound relative to a known compound, read-out: % Efficiency. The protocol: Human GPR120 stable cell-line was generated in HEK293 cells. GPR120 (Accession number BC101175) is fused to a promiscuous G protein, Ga16. The expression plasmid is transfected into HEK293 cells using Fugene6 following manufacturer's instruction. Stable cell-lines are generated following drug selection.
FLIPR (Fluorimetric Imaging Plate Reader, Molecular Devices) assays are performed to measure agonist-induced calcium mobilization in the GPR120-expressing cells. One day before the FLIPR assay, HEK293-GPR120-Ga16 cells are seeded into poly-D-lysine coated black-wall-clear bottom 384 well plates (Falcon) at 25,000 cells per well in 40 μl DMEM supplemented with 1% of FBS. The cells are incubated overnight at 37° C. in a humidified incubator. The medium is aspirated on the day of the FLIPR assay. The cells are incubated with 50 μl/well of the assay buffer (HBSS, 20 mM HEPES, 2.5 mM probenecid, pH7.4) containing Fluo-4 NM dye (Invitrogen cat# F36205) at 37° C. for 45 minutes, and then equilibrated at room temperature for 30 minutes. Compounds are dissolved in DMSO and diluted to desired concentrations with assay buffer. Fluorescent output is measured immediately following compound addition (12.5 μl/well) on the FLIPR machine.
An EC50 value was calculated using the change of fluorescent intensity from the reaction initiation. […] In some examples, compounds provided herein have EC50 values from 0.1 μM to 5 μM, while in other examples from 0.5 μM to 5 μM.
The EC50 value in those experiments is given as that concentration of the test compound in question that provoke a response halfway between the baseline and maximum responses. In certain examples compounds of Formula (I) have EC50 values from 0.001 μM to 5 μM. In other examples, compounds of Formula (I) have EC50 values from 0.001 μM to 4 μM. In other examples, compounds of Formula (I) have EC50 values from 0.001 μM to 3 μM. In other examples, compounds of Formula (I) have EC50 values from 0.001 μM to 2 μM. In other examples, compounds of Formula (I) have EC50 values from 0.001 μM to 1 μM. In other examples, compounds of Formula (I) have EC50 values from 0.001 μM to 0.5 μM. […] In other examples, compounds of Formula (I) have EC50 values from 0.001 μM to 0.1 μM.
The % efficiency in those experiments is given as that % enhancement of the test compound in question relative to a known compound. In certain examples compounds of Formula (I) have a % efficiency values from 50% to 150%. In other examples, compounds of Formula (I) have a % efficiency values from 55% to 150%. In other examples, compounds of Formula (I) have a % efficiency values from 60% to 150%. In other examples, compounds of Formula (I) have a % efficiency values from 65% to 150%. In other examples, compounds of Formula (I) have a % efficiency values from 70% to 150%. In other examples, compounds of Formula (I) have a % efficiency values from 75% to 150%. In other examples, compounds of Formula (I) have a % efficiency values from 80% to 150%. In other examples, compounds of Formula (I) have a % efficiency values from 85% to 150%. In other examples, compounds of Formula (I) have a % efficiency values from 90% to 150%. In other examples, compounds of Formula (I) have a % efficiency values from 95% to 150%. In other examples, compounds of Formula (I) have a % efficiency values from 100% to 150%.
Background: Calcium assays in cells follow changes in intracellular calcium, usually with a dye or a luminescent sensor.

The structures appear in SMILES notation. Like-named read-outs stand apart in the source and are kept apart here.

`CCn1c(-c2cccc(F)c2)cs/c1=N\c1ccc(S(=O)(=O)O)cc1` [Compound 4, (Z)-4-(3-ethyl-4-(3-fluorophenyl)thiazol-2(3H)-ylideneamino)benzenesulfonic acid]: the EC50 (read-out: EC50 Range) was in the range of 0.25 to 0.5 µM.

For `O=C(O)c1cccc(-n2cc(-c3ccc(Br)cc3)nn2)c1` [Compound 63, 3-(4-(4-bromophenyl)-1H-1,2,3-triazol-1-yl)benzoic acid], the EC50 (read-out: EC50 Range) lay within 1 to 5 µM.

Take `CCn1c(-c2ccccc2O)cs/c1=N\c1ccc(C(=O)O)cc1` [Compound 48, (Z)-4-(3-ethyl-4-(2-hydroxyphenyl)thiazol-2(3H)-ylideneamino)benzoic acid]: under “read-out: EC50 Range”, the EC50 was in the range of 0.1 to 0.25 µM.

For the molecule `CCn1c(-c2ccccc2Oc2ccccc2)cs/c1=N\c1ccc(C(=O)O)cc1` [Compound 8, (Z)-4-(3-ethyl-4-(2-phenoxyphenyl)thiazol-2(3H)-ylideneamino)benzoic acid], the Emax amounted to 88.1%. Moreover, under “read-out: EC50”, the EC50 was 0.78 µM. Besides, the EC50 (read-out: EC50 Range) was in the range of 0.5 to 1 µM.

Take `CCn1c(-c2cccc3ccccc23)cs/c1=N\c1ccc(C(=O)O)cc1` [Compound 40, (Z)-4-(3-ethyl-4-(naphthalen-1-yl)thiazol-2(3H)-ylideneamino)benzoic acid]: the Emax is 107%. Besides, the EC50 (read-out: EC50) was 0.354 µM. In addition, the EC50 (read-out: EC50 Range) is 0.25 to 0.5 µM.

With `O=C(O)c1cccc(-n2cc(-c3ccc(C(F)(F)F)cc3)nn2)c1` [Compound 58, 3-(4-(4-(trifluoromethyl)phenyl)-1H-1,2,3-triazol-1-yl)benzoic acid], the EC50 (read-out: EC50 Range) was 1 to 5 µM.

On to `CCn1c(-c2ccccc2OC(F)(F)F)cs/c1=N\c1ccc(S(=O)(=O)O)cc1` [Compound 6, (Z)-4-(3-ethyl-4-(2-(trifluoromethoxy)phenyl)thiazol-2(3H)-ylideneamino)benzenesulfonic acid], for which the Emax was 123%. Further, the EC50 (read-out: EC50) was determined as 0.541 µM. In addition, the EC50 (read-out: EC50 Range) lay in the range of 0.5 to 1 µM.

On to `CCn1c(-c2cccc(C#N)c2)cs/c1=N\c1ccc(C(=O)O)cc1` [Compound 49, (Z)-4-(4-(3-cyanophenyl)-3-ethylthiazol-2(3H)-ylideneamino)benzoic acid], for which, under “read-out: EC50 Range”, the EC50 was in the range of 0.25 to 0.5 µM.

As to `CCn1c(-c2ccccc2)cs/c1=N\c1ccc(-c2nn[nH]n2)cc1` [Compound 9, (Z)-N-(3-ethyl-4-phenylthiazol-2(3H)-ylidene)-4-(2H-tetrazol-5-yl)aniline], the Emax turned out to be 98.4%. Moreover, under “read-out: EC50”, the EC50 is 0.207 µM. For the same molecule, for the setting “read-out: EC50 Range”, the 50% effective concentration (EC50) lay within 0.1 to 0.25 µM.

As to `CCn1c(-c2ccccc2OC)cs/c1=N\c1ccc(C(=O)O)cc1` [Compound 32, (Z)-4-(3-ethyl-4-(2-methoxyphenyl)thiazol-2(3H)-ylideneamino)benzoic acid], the 50% effective concentration (EC50) (read-out: EC50 Range) lay within 0.5 to 1 µM.

In the case of `O=C(O)c1cccc(-n2cc(-c3ccccc3F)nn2)c1` [Compound 60, 3-(4-(2-fluorophenyl)-1H-1,2,3-triazol-1-yl)benzoic acid], the EC50 (read-out: EC50 Range) was 1 to 5 µM.

Regarding `O=C(O)c1cccc(-n2cc(-c3ccc(F)cc3F)nn2)c1` [Compound 62, 3-(4-(2,4-difluorophenyl)-1H-1,2,3-triazol-1-yl)benzoic acid], the EC50 (read-out: EC50 Range) fell in the range of 0.25 to 0.5 µM.

Turning to `CCn1c(-c2ccccc2Br)cs/c1=N\c1ccc(C(=O)O)cc1` [Compound 42, (Z)-4-(4-(2-bromophenyl)-3-ethylthiazol-2(3H)-ylideneamino)benzoic acid], the EC50 (read-out: EC50 Range) was 0.001 to 0.1 µM.

Take `COc1cccc(-c2noc(-c3cccc(C(=O)O)c3)n2)c1` [Compound 53, 3-(3-(3-methoxyphenyl)-1,2,4-oxadiazol-5-yl)benzoic acid]: the EC50 (read-out: EC50 Range) was in the range of 0.5 to 1 µM.

As to `CCn1c(-c2ccccc2)cs/c1=N\c1c(F)c(F)c(C(=O)O)c(F)c1F` [Compound 25, (Z)-4-(3-ethyl-4-phenylthiazol-2(3H)-ylideneamino)-2,3,5,6-tetrafluorobenzoic acid], where the note is “read-out: EC50 Range”, the half-maximal effective concentration (EC50) fell in the range of 0.25 to 0.5 µM.

Turning to `CCn1c(-c2cc(C(F)(F)F)cc(C(F)(F)F)c2)cs/c1=N\c1ccc(S(=O)(=O)O)cc1` [Compound 2], the Emax came to 102%. The EC50 (read-out: EC50) stood at 0.396 µM. For the same molecule, the EC50 (read-out: EC50 Range) fell in the range of 0.25 to 0.5 µM.

`CCn1c(-c2cccc(OCc3ccccn3)c2)cs/c1=N\c1ccc(C(=O)O)cc1` [Compound 27, (Z)-4-(3-ethyl-4-(3-(pyridin-2-ylmethoxy)phenyl)thiazol-2(3H)-ylideneamino)benzoic acid]: the Emax amounted to 65.9%. Moreover, where the note is “read-out: EC50”, the EC50 is 0.7 µM. The EC50 (read-out: EC50 Range) fell in the range of 0.5 to 1 µM.

As to `CCn1c(-c2cccc(OCc3ccccc3)c2)cs/c1=N\c1ccc(C(=O)O)cc1` [Compound 26, (Z)-4-(4-(3-(benzyloxy)phenyl)-3-ethylthiazol-2(3H)-ylideneamino)benzoic acid], the concentration giving a half-maximal response (EC50) (read-out: EC50 Range) was in the range of 0.5 to 1 µM.

Take `O=C(O)c1cccc(-n2cc(-c3ccc(Cl)cc3)nn2)c1` [Compound 59, 3-(4-(4-chlorophenyl)-1H-1,2,3-triazol-1-yl)benzoic acid]: where the note is “read-out: EC50 Range”, the EC50 lay within 1 to 5 µM.

`CC(C)n1c(-c2ccccc2)cs/c1=N\c1ccc(C(=O)O)cc1` [Compound 17, (Z)-4-(3-isopropyl-4-phenylthiazol-2(3H)-ylideneamino)benzoic acid]: the half-maximal effective concentration (EC50) (read-out: EC50 Range) is 0.1 to 0.25 µM.

Turning to `CCn1c(-c2cc(Cl)ccc2Cl)cs/c1=N\c1ccc(S(=O)(=O)O)cc1` [Compound 7, (Z)-4-(4-(2,5-dichlorophenyl)-3-ethylthiazol-2(3H)-ylideneamino)benzenesulfonic acid], the Emax stood at 124%. The EC50 (read-out: EC50) came to 0.109 µM. Further, the EC50 (read-out: EC50 Range) lay in the range of 0.1 to 0.25 µM.

For `COc1ccc(-c2noc(-c3ccc(C(=O)O)cc3)n2)cc1` [Compound 52, 4-(3-(4-methoxyphenyl)-1,2,4-oxadiazol-5-yl)benzoic acid], where the note is “read-out: EC50 Range”, the half-maximal effective concentration (EC50) lay within 1 to 5 µM.

With `Cc1ccc(-c2cn(-c3cccc(C(=O)O)c3)nn2)cc1` [Compound 57, 3-(4-p-tolyl-1H-1,2,3-triazol-1-yl)benzoic acid], the Emax amounted to 53.7%. The EC50 (read-out: EC50) was found to be 1.34 µM. Besides, the concentration for a half-maximal effect (EC50) (read-out: EC50 Range) fell in the range of 1 to 5 µM.

Turning to `COc1ccc(-c2noc(-c3cccc(C(=O)O)c3)n2)cc1` [Compound 51, 3-[3-(4-Methoxyphenyl)-1,2,4-oxadiazol-5-yl]benzoic acid], the Emax is 55%. The EC50 (read-out: EC50) was 0.184 µM. Moreover, the EC50 (read-out: EC50 Range) is 0.1 to 0.25 µM.

On to `CCc1ccc(-c2cn(-c3cc(OC)cc(C(=O)O)c3)nn2)cc1` [Compound 65, 3-(4-(4-ethylphenyl)-1H-1,2,3-triazol-1-yl)-5-methoxybenzoic acid], for which the EC50 (read-out: EC50 Range) lay within 1 to 5 µM.
